How the values were obtained:
[1] = Stability of analytes in rat plasma QC samples under processing and storage conditions; assay type: in vitro ADME; conditions: n = 6; for Measured concentration, room temperature for 4h / Measured concentration, three freeze-thaw / Measured concentration, −70°C for 21 days: rat plasma; for Measured concentration, autosampler for 12h: treated rat plasma sample
Experimental: The stability of the 13 analytes was evaluated by QC samples in different processing and storage conditions, including short-term stability (putting the analytes in ambient temperature for 4 h and storing analytes in autosampler for 12 h after treatment), long-term stability (storing the analytes at −70°C for 21 days) and subjecting analytes to three freeze-thaw cycles. All stability experiments were tested in six parallels with low, middle, and high concentrations.

[2] = Pharmacokinetic study in rats after oral administration of Semen Cuscutae extract (HPLC-MS/MS of plasma); assay type: in vivo, Sprague–Dawley rats; conditions: oral Semen Cuscutae extract 13 g/kg; for AUC: read-out: AUC(0-tn); for plasma concentration after 15 minutes of intragastric administration: LLOQ 1 ng/mL
Experimental: 20 μL of methanol, 20 μL of IS (liquiritin, 200 ng/mL) and 20 μL of formic acid were added to 100 μL of plasma sample and then vortex-mixed. The mixture was extracted with 800 μL of acetonitrile by vortexing for 3 min. After centrifugation at 14000 rpm for 10 min, the supernatant was transferred to a clean glass tube and dried with nitrogen. The residue was reconstituted in 100 μL of methanol and then centrifuged at 14000 rpm for 10 min. 5 μL of supernatant was injected into the LC–MS/MS system for analysis.
Six Sprague–Dawley rats (SPF, 200 ± 10 g, male) were purchased from HFK Laboratory Animal Technology Co., Ltd. The rats were housed in a standard laboratory condition (12 h dark-light cycle; temperature was 25°C ± 2°C and humidity was kept 50 ± 5%) and fed standard dry pellet diet and water for one week for acclimatization. Before the experiments, the rats were in fasting state for 12 h, with free access to water. The Semen Cuscutae extracts were dissolved in 0.5% carboxymethyl cellulose-sodium, prepared into suspension and gavage to the rats at a dose of 13 g/kg. Approximately 200 μL of rat blood samples was collected from the orbital venous plexus at 0, 0.03, 0.08, 0.17, 0.25, 0.5, 1, 2, 4, 6, 8, 10, 12, 24, 36, and 48 h after oral administration into 1.5 mL heparinized centrifuge tube. After centrifugation at 7000 rpm for 10 min immediately, the supernatant was collected into a new centrifuge tube and stored at −70°C until analysis.
Pharmacokinetic parameters (Cmax, t1/2, Tmax, AUC(0-tn), and AUC(0-∞)) were obtained using the software “Drug and Statistics 3.0” (DAS 3.0) (Medical College of Wannan, China).

[3] = male, Sprague-Dawley, rat plasma, n = 6
[4] = rat plasma, n = 6, listed as astragalin
[5] = male, Sprague-Dawley, rat, plasma, po, 13 g/kg, n = 6
[6] = rat plasma, n = 6, listed as isoquercitrin

Compound	Measured concentration, room temperature for 4h ([1]; spiked 2 ng/mL)	Measured concentration, three freeze-thaw ([1]; spiked 2 ng/mL)	Measured concentration, −70°C for 21 days ([1]; spiked 2 ng/mL)	Measured concentration, room temperature for 4h ([1]; spiked 25 ng/mL)	Measured concentration, three freeze-thaw ([1]; spiked 25 ng/mL)	Measured concentration, −70°C for 21 days ([1]; spiked 25 ng/mL)	Measured concentration, room temperature for 4h ([1]; spiked 250 ng/mL)	Measured concentration, three freeze-thaw ([1]; spiked 250 ng/mL)	Measured concentration, −70°C for 21 days ([1]; spiked 250 ng/mL)	Measured concentration, autosampler for 12h ([1]; spiked 2 ng/mL)	Measured concentration, autosampler for 12h ([1]; spiked 25 ng/mL)	Measured concentration, autosampler for 12h ([1]; spiked 250 ng/mL)	AUC(0-inf) [2, 3]	Cmax [2, 3]	AUC [2, 3]	T max ([2]; rat plasma, n = 6)	t 1/2 ([2]; rat plasma, n = 6)	plasma concentration after 15 minutes of intragastric administration ([2]; rat plasma)	half-life [2, 5]	also measured
O=c1c(O[C@@H]2O[C@H](CO)[C@@H](O)[C@H](O)[C@H]2O)c(-c2ccc(O)cc2)oc2cc(O)cc(O)c12 [Astragalin]	2.1 ± 0.1 ng/mL	2.1 ± 0.1 ng/mL	2.0 ± 0.1 ng/mL	27.6 ± 1.2 ng/mL	27.2 ± 0.8 ng/mL	26.1 ± 1.2 ng/mL	248.1 ± 4.3 ng/mL	258.6 ± 8.5 ng/mL	251.5 ± 8.7 ng/mL	2.1 ± 0.1 ng/mL	27.3 ± 1.0 ng/mL	254.6 ± 4.6 ng/mL	441 ± 292 ng·h/mL	58.2 ± 28.5 ng/mL	370 ± 259 ng·h/mL	14.4 ± 5.4 min	27 ± 15.6 min			T max [2, 4]: less than 1 h; t 1/2 [2, 4]: less than 1.5 h
O=C(/C=C/c1ccc(O)c(O)c1)O[C@H]1[C@H](O)C[C@](O)(C(=O)O)C[C@H]1O [Cryptochlorogenic acid]	2.0 ± 0.1 ng/mL	2.0 ± 0.1 ng/mL	2.0 ± 0.1 ng/mL	27.0 ± 1.8 ng/mL	26.2 ± 0.3 ng/mL	25.5 ± 1.2 ng/mL	260.4 ± 3.3 ng/mL	248.9 ± 6.5 ng/mL	244.4 ± 7.4 ng/mL	2.1 ± 0.1 ng/mL	27.3 ± 0.6 ng/mL	251.2 ± 9.7 ng/mL						lower than the LLOQ		
O=C(O)/C=C/c1ccc(O)c(O)c1 [Caffeic acid]	2.1 ± 0.1 ng/mL	2.1 ± 0.1 ng/mL	2.0 ± 0.1 ng/mL	27.9 ± 1.0 ng/mL	27.0 ± 1.3 ng/mL	26.0 ± 0.6 ng/mL	272.5 ± 8.9 ng/mL	255.7 ± 3.9 ng/mL	250.2 ± 5.1 ng/mL	2.2 ± 0.1 ng/mL	28.1 ± 0.8 ng/mL	262.6 ± 7.4 ng/mL	652 ± 292 ng·h/mL	33.7 ± 8.43 ng/mL	613 ± 291 ng·h/mL		696 ± 55.2 min		> 450 min	Tmax [2, 5]: 16.8 ± 2.4 min
COc1cc(-c2oc3cc(O)cc(O)c3c(=O)c2O[C@@H]2O[C@H](CO)[C@@H](O)[C@H](O)[C@H]2O)ccc1O [Isorhamnetin-3-O-glucoside]	2.0 ± 0.1 ng/mL	2.0 ± 0.1 ng/mL	2.1 ± 0.1 ng/mL	27.1 ± 1.3 ng/mL	27.1 ± 1.5 ng/mL	26.2 ± 0.6 ng/mL	259.9 ± 5.5 ng/mL	255.0 ± 5.7 ng/mL	249.5 ± 7.0 ng/mL	2.1 ± 0.1 ng/mL	26.9 ± 1.0 ng/mL	251.5 ± 5.4 ng/mL	257 ± 74.4 ng·h/mL	19.5 ± 9.8 ng/mL	172 ± 49.2 ng·h/mL	18 ± 0.6 min	73.8 ± 15.6 min		< 90 min	T max ([2]; rat plasma, n = 6, listed as isorhamnetin-3-O-glucoside): less than 1 h
O=C(/C=C/c1ccc(O)c(O)c1)O[C@@H]1C[C@](O)(C(=O)O)C[C@@H](O)[C@H]1O [Chlorogenic acid]	2.1 ± 0.1 ng/mL	2.1 ± 0.1 ng/mL	2.1 ± 0.1 ng/mL	27.7 ± 1.6 ng/mL	28.1 ± 1.0 ng/mL	26.6 ± 1.2 ng/mL	258.4 ± 15.7 ng/mL	268.6 ± 15.8 ng/mL	253.6 ± 7.7 ng/mL	2.1 ± 0.1 ng/mL	26.6 ± 1.6 ng/mL	253.1 ± 6.0 ng/mL	1000 ± 646 ng·h/mL	35.5 ± 7.3 ng/mL	995 ± 654 ng·h/mL	13.2 ± 3.6 min	61.2 ± 40.2 min		< 90 min	T max ([2]; rat plasma, n = 6, listed as chlorogenic acid): less than 1 h
C[C@@H]1O[C@@H](Oc2c(-c3ccc(O)c(O)c3)oc3cc(O)cc(O)c3c2=O)[C@H](O)[C@H](O)[C@H]1O [Quercitrin]	2.1 ± 0.1 ng/mL	2.3 ± 0.1 ng/mL	2.0 ± 0.1 ng/mL	26.3 ± 0.7 ng/mL	26.9 ± 1.5 ng/mL	26.5 ± 0.5 ng/mL	252.5 ± 9.1 ng/mL	261.4 ± 10.3 ng/mL	247.9 ± 5.3 ng/mL	2.1 ± 0.1 ng/mL	26.4 ± 0.9 ng/mL	253.1 ± 4.7 ng/mL						lower than the LLOQ		
Isoquercitrin	1.8 ± 0.2 ng/mL	2.1 ± 0.1 ng/mL	1.9 ± 0.1 ng/mL	22.8 ± 1.4 ng/mL	26.2 ± 1.8 ng/mL	25.9 ± 1.8 ng/mL	247.2 ± 14.7 ng/mL	248.9 ± 5.1 ng/mL	263.6 ± 10.2 ng/mL	1.9 ± 0.1 ng/mL	24.0 ± 0.5 ng/mL	238.3 ± 7.2 ng/mL				12.6 ± 4.2 min	29.4 ± 3 min			AUC(0-tn) ([2]; rat plasma, n = 6): 838.79 ± 518.04 ng·h/mL; AUC(0-∞) ([2]; rat plasma, n = 6): 949.49 ± 594.15 ng·h/mL; C max ([2]; rat plasma, n = 6): 52.61 ± 7.55 ng/mL; T max [2, 6]: less than 1 h; t 1/2 [2, 6]: less than 1.5 h
O=c1c(O)c(-c2ccc(O)c(O)c2)oc2cc(O)cc(O)c12 [Quercetin]	2.2 ± 0.1 ng/mL	2.0 ± 0.1 ng/mL	1.9 ± 0.1 ng/mL	26.2 ± 0.7 ng/mL	27.3 ± 0.6 ng/mL	25.6 ± 0.9 ng/mL	254.9 ± 11.8 ng/mL	253.2 ± 5.0 ng/mL	260.0 ± 6.2 ng/mL	2.3 ± 0.1 ng/mL	26.6 ± 0.7 ng/mL	245.3 ± 11.6 ng/mL						lower than the LLOQ		
O=c1cc(-c2ccc(O)c(O)c2)oc2cc(O)cc(O)c12 [Luteolin]	2.2 ± 0.1 ng/mL	2.0 ± 0.1 ng/mL	2.0 ± 0.1 ng/mL	26.5 ± 0.5 ng/mL	26.8 ± 1.6 ng/mL	27.4 ± 0.9 ng/mL	256.7 ± 11.5 ng/mL	261.1 ± 8.2 ng/mL	257.6 ± 5.1 ng/mL	2.1 ± 0.1 ng/mL	25.6 ± 1.0 ng/mL	244.9 ± 6.3 ng/mL						lower than the LLOQ		

Source: paper PMC6925736, “Development of a HPLC-MS/MS Method to Determine the 13 Elements of Semen Cuscutae and Application to a Pharmacokinetic Study in Rats” (Evidence-based Complementary and Alternative Medicine : eCAM, 2019)
